The source of these data is the supplement of paper PMC10307832.

What all share (experiment): relative viability (nuclei count vs DMSO), 5 days (fraction); higher = more cells survive
Compound in assay [1]: C1=CC=C2C(=C1)N=C(S2)C(C#N)C3=NC(=NC=C3)NCCC4=CN=CC=C4 + NC(=O)Nc1cc(-c2cccc(F)c2)sc1C(=O)N[C@H]1CCCNC1 [AZD7762] (partner 0.2 µM)
An outline of the steps: (§1)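 For relative viability, nuclei counts in treated wells were divided by those in vehicle wells. Lung cancer cell lines had been pin-tool dosed in 1536-well plates the day after seeding and cultured for 5 days, then fixed and stained in one step (final 0.05% Triton X-100, 1% formaldehyde, 1 ug/ml Hoechst) and imaged at 4×. Doses were one drug alone or a fixed anchor-drug dose plus five library-drug doses (not always all listed) in √10 steps, and values are duplicate-plate medians.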

Compound in the assay “NVP-TAE684 + Trametinib”: COc1cc(N2CCC(N3CCN(C)CC3)CC2)ccc1Nc1ncc(Cl)c(Nc2ccccc2S(=O)(=O)C(C)C)n1 [NVP-TAE684] + CC(=O)Nc1cccc(-n2c(=O)n(C3CC3)c(=O)c3c(Nc4ccc(I)cc4F)n(C)c(=O)c(C)c32)c1 [Trametinib] (partner 0.02 µM)
The procedure, abridged:
as §1

Compound in the assay “NVP-TAE684 + AZD7762”: COc1cc(N2CCC(N3CCN(C)CC3)CC2)ccc1Nc1ncc(Cl)c(Nc2ccccc2S(=O)(=O)C(C)C)n1 [NVP-TAE684] + NC(=O)Nc1cc(-c2cccc(F)c2)sc1C(=O)N[C@H]1CCCNC1 [AZD7762] (partner 0.2 µM)
An outline of the steps:
as §1

Compound in the assay “NVP-TAE684 + Vorinostat”: COc1cc(N2CCC(N3CCN(C)CC3)CC2)ccc1Nc1ncc(Cl)c(Nc2ccccc2S(=O)(=O)C(C)C)n1 [NVP-TAE684] + O=C(CCCCCCC(=O)Nc1ccccc1)NO [Vorinostat] (partner 1 µM)
The procedure, abridged:
as §1

Compound in the assay “CUDC-101 + Decitabine”: C#Cc1cccc(Nc2ncnc3cc(OC)c(OCCCCCCC(=O)NO)cc23)c1 [CUDC-101] + Nc1ncn([C@H]2C[C@H](O)[C@@H](CO)O2)c(=O)n1 [Decitabine] (partner 2 µM)
An outline of the steps:
as §1

With PC-14, the relative viability in assay [1] (first compound 0.005 µM) is 0.334; in assay [1] (first compound 0.01581 µM), 0.238; in assay [1] (first compound 0.05 µM), 0.396; in assay [1] (first compound 0.1581 µM), 0.514; in assay [1] (first compound 0.5 µM), 0.302; with NVP-TAE684 + Trametinib (first compound 0.2 µM), 0.677. For the same cell line, the relative viability was 0.62 with NVP-TAE684 + Trametinib (first compound 0.6325 µM); 0.0712 in the assay with NVP-TAE684 + Trametinib (first compound 2 µM); 0.339 with NVP-TAE684 + AZD7762 (first compound 0.2 µM); 0.275 with NVP-TAE684 + AZD7762 (first compound 0.6325 µM); 0.224 with NVP-TAE684 + AZD7762 (first compound 2 µM); 0.44 in the assay with NVP-TAE684 + Vorinostat (first compound 0.2 µM). The relative viability with NVP-TAE684 + Vorinostat (first compound 0.6325 µM) was found to be 0.69; with NVP-TAE684 + Vorinostat (first compound 2 µM), 0.144; with CUDC-101 + Decitabine (first compound 0.01 µM) it was 0.253; with CUDC-101 + Decitabine (first compound 0.03162 µM) it was 0.249; with CUDC-101 + Decitabine (first compound 0.1 µM), 0.158; with CUDC-101 + Decitabine (first compound 0.3162 µM) it was 0.179. The relative viability with CUDC-101 + Decitabine (first compound 1 µM) was 0.0808.

RERF-LC-KJ: the relative viability in assay [1] (first compound 0.005 µM) was 0.984; in assay [1] (first compound 0.01581 µM), 0.977; in assay [1] (first compound 0.05 µM) it was 1.02; in assay [1] (first compound 0.1581 µM), 1.23; in assay [1] (first compound 0.5 µM) it was 0.964; in the assay with NVP-TAE684 + Trametinib (first compound 0.2 µM) it was 0.861. The relative viability with NVP-TAE684 + Trametinib (first compound 0.6325 µM) came to 0.772; with NVP-TAE684 + Trametinib (first compound 2 µM), 0.664; with NVP-TAE684 + AZD7762 (first compound 0.2 µM), 0.97; in the assay with NVP-TAE684 + AZD7762 (first compound 0.6325 µM), 0.985; in the assay with NVP-TAE684 + AZD7762 (first compound 2 µM) it was 0.729; with NVP-TAE684 + Vorinostat (first compound 0.2 µM) it was 0.589. Besides, the relative viability is 0.644 in the assay with NVP-TAE684 + Vorinostat (first compound 0.6325 µM); 0.48 in the assay with NVP-TAE684 + Vorinostat (first compound 2 µM); 0.648 with CUDC-101 + Decitabine (first compound 0.01 µM); 0.724 with CUDC-101 + Decitabine (first compound 0.03162 µM); 0.711 in the assay with CUDC-101 + Decitabine (first compound 0.1 µM); 0.588 in the assay with CUDC-101 + Decitabine (first compound 0.3162 µM). For the same cell line, the relative viability in the assay with CUDC-101 + Decitabine (first compound 1 µM) worked out at 0.469.

For SW 900, the relative viability in assay [1] (first compound 0.005 µM) was 0.693; in assay [1] (first compound 0.01581 µM) it was 0.634; in assay [1] (first compound 0.05 µM), 0.548; in assay [1] (first compound 0.1581 µM), 0.622; in assay [1] (first compound 0.5 µM), 0.533; in the assay with NVP-TAE684 + Trametinib (first compound 0.2 µM) it was 0.743. Moreover, the relative viability was 0.51 with NVP-TAE684 + Trametinib (first compound 0.6325 µM); 0.594 with NVP-TAE684 + Trametinib (first compound 2 µM); 0.526 with NVP-TAE684 + AZD7762 (first compound 0.2 µM); 0.476 with NVP-TAE684 + AZD7762 (first compound 0.6325 µM); 0.445 with NVP-TAE684 + AZD7762 (first compound 2 µM); 0.686 with NVP-TAE684 + Vorinostat (first compound 0.2 µM). In addition, the relative viability amounted to 0.46 with NVP-TAE684 + Vorinostat (first compound 0.6325 µM); 0.687 in the assay with NVP-TAE684 + Vorinostat (first compound 2 µM); 0.428 in the assay with CUDC-101 + Decitabine (first compound 0.01 µM); 0.405 with CUDC-101 + Decitabine (first compound 0.03162 µM); 0.426 with CUDC-101 + Decitabine (first compound 0.1 µM); 0.397 with CUDC-101 + Decitabine (first compound 0.3162 µM). The relative viability with CUDC-101 + Decitabine (first compound 1 µM) stood at 0.33.
